Where a SMILES comes first, the peptide text is derived from it. The star is where a group is joined. Octanoyl = CCCCCCCC(=O)*; Hexanoyl = CCCCCC(=O)*
Legend:
HCT-116 = assay: Cytotoxicity against human HCT116 cells incubated for 2 days by MTT assay; type: functional, cell-based; details: HCT-116, 48 h
K562 = assay: Cytotoxicity against human K562 cells incubated for 2 days by MTT assay; type: functional, cell-based; details: K562, 48 h
Pseudomonas aeruginosa = assay: Antimicrobial activity against Pseudomonas aeruginosa […] ATCC 27853 incubated for 24 hrs by Kirby-Bauer disk diffusion method; type: functional
Rhizoctonia solani = assay: Antimicrobial activity against Rhizoctonia solani incubated for 24 hrs by Kirby-Bauer disk diffusion method; type: functional
Candida albicans = assay: Antimicrobial activity against Candida albicans incubated for 24 hrs by Kirby-Bauer disk diffusion method; type: functional
MDA-MB-231 = assay: Cytotoxicity against human MDA-MB-231 cells incubated for 2 days by MTT assay; type: functional, cell-based; details: MDA-MB-231, 48 h
Escherichia coli = assay: Antimicrobial activity against Escherichia coli ATCC 35218 incubated for 24 hrs by Kirby-Bauer disk diffusion method; type: functional; details: ATCC 35218, 24 h
Staphylococcus aureus = assay: Antimicrobial activity against Staphylococcus aureus ATCC 29213 incubated for 24 hrs by Kirby-Bauer disk diffusion method; type: functional; details: ATCC 29213, 24 h
[1] = Cytotoxicity against human Kasumi cells incubated for 2 days by MTT assay; type: functional, cell-based; details: 48 h
Aspergillus fumigatus = assay: Antimicrobial activity against Aspergillus fumigatus incubated for 24 hrs by Kirby-Bauer disk diffusion method; type: functional
A549 = assay: Cytotoxicity against human A549 cells incubated for 2 days by MTT assay; type: functional, cell-based; details: A549, 48 h
MCF7 = assay: Cytotoxicity against human MCF7 cells incubated for 2 days by MTT assay; type: functional, cell-based; details: MCF7, 48 h
[2] = Cytotoxicity against human 2B cells incubated for 2 days by MTT assay; type: cell-based; details: 48 h
SGC-7901 = assay: Cytotoxicity against human SGC7901 cells incubated for 2 days by MTT assay; type: functional, cell-based; details: SGC-7901, 48 h
HepG2 = assay: Cytotoxicity against human HepG2 cells incubated for 2 days by MTT assay; type: functional, cell-based; details: HepG2, 48 h
Bacillus subtilis = assay: Antimicrobial activity against Bacillus subtilis ATCC 6633 incubated for 24 hrs by Kirby-Bauer disk diffusion method; type: functional; details: ATCC 6633, 24 h

SMILES	MIC (Pseudomonas aeruginosa)	MIC (Rhizoctonia solani)	MIC (Candida albicans)	MIC (Escherichia coli)	MIC (Staphylococcus aureus)	MIC (Aspergillus fumigatus)	MIC (Bacillus subtilis)	IC50 (HCT-116)	IC50 (K562)	IC50 (MDA-MB-231)	IC50 [1]	IC50 (A549)	IC50 (MCF7)	IC50 [2]	IC50 (SGC-7901)	IC50 (HepG2)
CCCCCCCC(=O)N[C@H](C(=O)N[C@@H](Cc1ccccc1)C(=O)N[C@@H](CCC(=O)O)C(=O)N[C@H](C(=O)N[C@@H](C)C(=O)N[C@@H](CC(C)C)C(=O)O)[C@@H](C)CC)C(C)C (Octanoyl-VFEIAL-OH)	> 100 µM	> 100 µM	> 100 µM	> 100 µM	> 100 µM	> 100 µM	> 100 µM	> 40 µM	> 40 µM	> 40 µM	> 40 µM	> 40 µM	> 40 µM	> 40 µM	> 40 µM	> 40 µM
CCCCCCCC(=O)N[C@H](C(=O)N[C@@H](Cc1ccccc1)C(=O)O)C(C)C (Octanoyl-Val-Phe-OH)	> 100 µM	> 100 µM	> 100 µM	> 100 µM	> 100 µM	> 100 µM	> 100 µM	> 40 µM	> 40 µM	> 40 µM	> 40 µM	> 40 µM	> 40 µM	> 40 µM	> 40 µM	> 40 µM
CCCCCC(=O)N[C@H](C(=O)N[C@@H](Cc1ccccc1)C(=O)N[C@@H](CCC(=O)O)C(=O)N[C@H](C(=O)N[C@@H](C)C(=O)N[C@H](C(=O)O)[C@@H](C)CC)[C@@H](C)CC)C(C)C (Hexanoyl-VFEIAI-OH)	> 100 µM	> 100 µM	> 100 µM	> 100 µM	> 100 µM	> 100 µM	> 100 µM	> 40 µM	> 40 µM	> 40 µM	> 40 µM	> 40 µM	> 40 µM	> 40 µM	> 40 µM	> 40 µM
CCCCCCCC(=O)N[C@H](C(=O)N[C@@H](Cc1ccccc1)C(=O)N[C@@H](CCC(=O)O)C(=O)N[C@H](C(=O)N[C@@H](C)C(=O)N[C@H](C(=O)O)[C@@H](C)CC)[C@@H](C)CC)C(C)C (Octanoyl-VFEIAI-OH)	> 100 µM	> 100 µM	> 100 µM	> 100 µM	> 100 µM	> 100 µM	> 100 µM	> 40 µM	> 40 µM	> 40 µM	> 40 µM	> 40 µM	> 40 µM	> 40 µM	> 40 µM	> 40 µM
CCCCCCCC(=O)N[C@H](C(=O)N[C@@H](Cc1ccccc1)C(=O)N[C@@H](CCC(=O)O)C(=O)N[C@@H](CC(C)C)C(=O)O)C(C)C (Octanoyl-VFEL-OH)	> 100 µM	> 100 µM	> 100 µM	> 100 µM	> 100 µM	> 100 µM	> 100 µM	> 40 µM	> 40 µM	> 40 µM	> 40 µM	> 40 µM	> 40 µM	> 40 µM	> 40 µM	> 40 µM
CCCCCCCC(=O)N[C@H](C(=O)N[C@@H](Cc1ccccc1)C(=O)N[C@@H](CCC(=O)O)C(=O)N[C@H](C(=O)NCC(=O)N[C@H](C(=O)O)[C@@H](C)CC)[C@@H](C)CC)C(C)C (Octanoyl-VFEIGI-OH)	> 100 µM	> 100 µM	> 100 µM	> 100 µM	> 100 µM	> 100 µM	> 100 µM	> 40 µM	> 40 µM	> 40 µM	> 40 µM	> 40 µM	> 40 µM	> 40 µM	> 40 µM	> 40 µM
CCCCCCCC(=O)N[C@H](C(=O)N[C@@H](Cc1ccccc1)C(=O)N[C@@H](CCC(=O)O)C(=O)N[C@@H](CC(C)C)C(=O)N[C@@H](C)C(=O)N[C@H](C(=O)O)[C@@H](C)CC)C(C)C (Octanoyl-VFELAI-OH)	> 100 µM	> 100 µM	> 100 µM	> 100 µM	> 100 µM	> 100 µM	> 100 µM	> 40 µM	> 40 µM	> 40 µM	> 40 µM	> 40 µM	> 40 µM	> 40 µM	> 40 µM	> 40 µM
CCCCCC(=O)N[C@H](C(=O)N[C@@H](Cc1ccccc1)C(=O)N[C@@H](CCC(=O)O)C(=O)N[C@H](C(=O)N[C@@H](C)C(=O)N[C@@H](CC(C)C)C(=O)O)[C@@H](C)CC)C(C)C (Hexanoyl-VFEIAL-OH)	> 100 µM	> 100 µM	> 100 µM	> 100 µM	> 100 µM	> 100 µM	> 100 µM	> 40 µM	> 40 µM	> 40 µM	> 40 µM	> 40 µM	> 40 µM	> 40 µM	> 40 µM	> 40 µM

Second part, led by results:

MIC (Pseudomonas aeruginosa)	MIC (Rhizoctonia solani)	MIC (Candida albicans)	MIC (Escherichia coli)	MIC (Staphylococcus aureus)	MIC (Aspergillus fumigatus)	MIC (Bacillus subtilis)	SMILES	IC50 (HCT-116)	IC50 (K562)	IC50 (MDA-MB-231)	IC50 [1]	IC50 (A549)	IC50 (MCF7)	IC50 [2]	IC50 (SGC-7901)	IC50 (HepG2)
> 100 µM	> 100 µM	> 100 µM	> 100 µM	> 100 µM	> 100 µM	> 100 µM	CCCCCCCC(=O)N[C@H](C(=O)N[C@@H](Cc1ccccc1)C(=O)N[C@@H](CCC(=O)O)C(=O)N[C@H](C(=O)O)[C@@H](C)CC)C(C)C (Octanoyl-VFEI-OH)	> 40 µM	> 40 µM	> 40 µM	> 40 µM	> 40 µM	> 40 µM	> 40 µM	> 40 µM	> 40 µM
> 100 µM	> 100 µM	> 100 µM	> 100 µM	> 100 µM	> 100 µM	> 100 µM	CCCCCC(=O)N[C@H](C(=O)N[C@@H](Cc1ccccc1)C(=O)O)C(C)C (Hexanoyl-Val-Phe-OH)	> 40 µM	> 40 µM	> 40 µM	> 40 µM	> 40 µM	> 40 µM	> 40 µM	> 40 µM	> 40 µM
> 100 µM	> 100 µM	> 100 µM	> 100 µM	> 100 µM	> 100 µM	> 100 µM	CCCCCCCC(=O)N[C@H](C(=O)N[C@@H](Cc1ccccc1)C(=O)N[C@@H](CCC(=O)O)C(=O)N[C@H](C(=O)N[C@@H](C)C(=O)N[C@H](C(=O)O)C(C)C)[C@@H](C)CC)C(C)C (Octanoyl-VFEIAV-OH)	> 40 µM	> 40 µM	> 40 µM	> 40 µM	> 40 µM	> 40 µM	> 40 µM	> 40 µM	> 40 µM
> 100 µM	> 100 µM	> 100 µM	> 100 µM	> 100 µM	> 100 µM	> 100 µM	CCCCCC(=O)N[C@H](C(=O)N[C@@H](Cc1ccccc1)C(=O)N[C@@H](CCC(=O)O)C(=O)N[C@@H](CC(C)C)C(=O)N[C@@H](C)C(=O)N[C@H](C(=O)O)[C@@H](C)CC)C(C)C (Hexanoyl-VFELAI-OH)	> 40 µM	> 40 µM	> 40 µM	> 40 µM	> 40 µM	> 40 µM	> 40 µM	> 40 µM	> 40 µM
> 100 µM	> 100 µM	> 100 µM	> 100 µM	> 100 µM	> 100 µM	> 100 µM	CCCCCC(=O)N[C@H](C(=O)N[C@@H](Cc1ccccc1)C(=O)N[C@@H](CCC(=O)O)C(=O)N[C@@H](CC(C)C)C(=O)N[C@@H](C)C(=O)N[C@@H](CC(C)C)C(=O)O)C(C)C (Hexanoyl-VFELAL-OH)	> 40 µM	> 40 µM	> 40 µM	> 40 µM	> 40 µM	> 40 µM	> 40 µM	> 40 µM	> 40 µM
> 100 µM	> 100 µM	> 100 µM	> 100 µM	> 100 µM	> 100 µM	> 100 µM	CCCCCCCC(=O)N[C@H](C(=O)N[C@@H](Cc1ccccc1)C(=O)N[C@@H](CCC(=O)O)C(=O)N[C@@H](CC(C)C)C(=O)N[C@@H](C)C(=O)N[C@H](C(=O)O)C(C)C)C(C)C (Octanoyl-VFELAV-OH)	> 40 µM	> 40 µM	> 40 µM	> 40 µM	> 40 µM	> 40 µM	> 40 µM	> 40 µM	> 40 µM
> 100 µM	> 100 µM	> 100 µM	> 100 µM	> 100 µM	> 100 µM	> 100 µM	CCCCCCCC(=O)N[C@H](C(=O)N[C@@H](Cc1ccccc1)C(=O)N[C@@H](CCC(=O)O)C(=O)N[C@@H](CC(C)C)C(=O)N[C@@H](C)C(=O)N[C@@H](CC(C)C)C(=O)O)C(C)C (Octanoyl-VFELAL-OH)	> 40 µM	> 40 µM	> 40 µM	> 40 µM	> 40 µM	> 40 µM	> 40 µM	> 40 µM	> 40 µM

From ChEMBL document CHEMBL4602678, “Identification of Holrhizins E-Q Reveals the Diversity of Nonribosomal Lipopeptides in Paraburkholderia rhizoxinica” (J Nat Prod, 2020)
